In PubChem BioAssay (NCI):
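Where inhibition never reached the appropriate level, the endpoint shown equals the highest concentration tested. Otherwise, values were interpolated linearly from a five-concentration, 48-hour dose response in 96-well plates. GI50: concentration for 50% inhibition of growth. TGI is the concentration that stops growth completely.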

Legend:
Assay in all cases: growth of human tumour cells (NCI), 48 h
LXFL 529 NSCLC = test system: LXFL 529 NSCLC
MDA-N = test system: MDA-N
M19-MEL melanoma = test system: M19-MEL melanoma
SNB-78 CNS = test system: SNB-78 CNS
DMS 273 small cell lung = test system: DMS 273 small cell lung
XF 498 CNS = test system: XF 498 CNS
DLD-1 colon = test system: DLD-1 colon
HOP-18 NSCLC = test system: HOP-18 NSCLC
KM20L2 colon = test system: KM20L2 colon

## COC1/C=C/OC2(C)Oc3c(C)c(O)c4c(c3C2=O)C(=O)C=C(NC(=O)/C(C)=C\C=C\C(C)C(OC=O)C(C)C(O)C(C)C(OC(C)=O)C1C)C4=O (configuration not stated)
LXFL 529 NSCLC
  TGI: 19 µM
MDA-N
  TGI: > 50.7 µM
M19-MEL melanoma
  TGI: 27.6 µM
SNB-78 CNS
  TGI: 44.2 µM
DMS 273 small cell lung
  TGI: 30.9 µM
XF 498 CNS
  TGI: 12.8 µM
DLD-1 colon
  TGI: 23.3 µM
HOP-18 NSCLC
  TGI: 15.8 µM
KM20L2 colon
  TGI: 35.2 µM

## CC(=O)N(CCN)CCN
LXFL 529 NSCLC
  TGI: > 10 µM
M19-MEL melanoma
  TGI: > 10 µM
SNB-78 CNS
  TGI: > 10 µM
DMS 273 small cell lung
  TGI: > 10 µM
XF 498 CNS
  TGI: > 100 µM
DLD-1 colon
  TGI: > 100 µM
KM20L2 colon
  TGI: > 10 µM

## COc1ccc(C(C2=C(C)C(=O)c3ccccc3C2=O)c2ccc(C(C)C)cc(=O)c2O)cc1 (configuration not stated)
LXFL 529 NSCLC
  TGI: > 100 µM
M19-MEL melanoma
  TGI: 4.92 µM
SNB-78 CNS
  TGI: 35.1 µM
DMS 273 small cell lung
  TGI: 5.4 µM
XF 498 CNS
  TGI: 34.1 µM
DLD-1 colon
  TGI: 18.4 µM

## Fc1cccc(Cl)c1C1SCc2nc3ccccc3n21 (configuration not stated)
LXFL 529 NSCLC
  TGI: > 100 µM
M19-MEL melanoma
  TGI: 89 µM
SNB-78 CNS
  TGI: 73.8 µM
DMS 273 small cell lung
  TGI: 57.9 µM
XF 498 CNS
  TGI: 66.1 µM
DLD-1 colon
  TGI: > 100 µM
HOP-18 NSCLC
  TGI: > 100 µM
KM20L2 colon
  TGI: 49.7 µM

## Cc1cc(O)c2c(c1)C(O)(c1ccc3c(c1O)C(=O)c1c(O)cc(C)cc1C3(O)C1OC(CO)C(O)C(O)C1O)c1cccc(O)c1C2=O (configuration not stated)
LXFL 529 NSCLC
  TGI: 24.5 µM
M19-MEL melanoma
  TGI: 24.8 µM
SNB-78 CNS
  TGI: 36.1 µM
DMS 273 small cell lung
  TGI: 30.4 µM
XF 498 CNS
  TGI: 16.7 µM
DLD-1 colon
  TGI: 23.7 µM
HOP-18 NSCLC
  TGI: 8.38 µM
KM20L2 colon
  TGI: 36 µM

## O=C(c1ccccc1)c1c(CC(O)c2cccnc2)n(C(=O)c2ccccc2)c2ccccc12 (configuration not stated)
M19-MEL melanoma
  TGI: 38.3 µM
DMS 273 small cell lung
  TGI: 56.2 µM
XF 498 CNS
  TGI: 27.1 µM
KM20L2 colon
  TGI: 42 µM

## CC(C)N(C(=O)C12C3C4C1C1C2C3C41C(O)C(C)(C)C)C(C)C (configuration not stated)
LXFL 529 NSCLC
  TGI: > 50 µM
M19-MEL melanoma
  TGI: > 50 µM
SNB-78 CNS
  TGI: > 50 µM
DMS 273 small cell lung
  TGI: > 50 µM
XF 498 CNS
  TGI: > 50 µM
KM20L2 colon
  TGI: > 50 µM

## Cc1cc2c(cc1C)NC1=C(N2)OC(c2c[nH]c3ccc(COc4ccccc4)cc23)C1=O (configuration not stated)
MDA-N
  TGI: > 100 µM

## Nc1cc2c3c(cccc3c1)NC2=O
MDA-N
  TGI: > 100 µM

## Cc1cc([N+](=O)[O-])c(C)c2c1[nH]c1ccc(/C(CCC3CCCC3)=N\N)cc12
M19-MEL melanoma
  TGI: 37.2 µM
SNB-78 CNS
  TGI: > 100 µM
DMS 273 small cell lung
  TGI: 36.3 µM
XF 498 CNS
  TGI: 28.1 µM
HOP-18 NSCLC
  TGI: 23.8 µM

## Cc1c(C)c2cc3c(=O)ccoc3c(C)c2oc1=O
LXFL 529 NSCLC
  TGI: > 100 µM
M19-MEL melanoma
  TGI: > 100 µM
SNB-78 CNS
  TGI: > 100 µM
HOP-18 NSCLC
  TGI: > 100 µM
KM20L2 colon
  TGI: > 100 µM

## O=C1[C@@H](c2ccc(Cl)cc2)[C@H]2CC=C[C@H]2N1O
LXFL 529 NSCLC
  TGI: > 100 µM
M19-MEL melanoma
  TGI: > 100 µM
SNB-78 CNS
  TGI: > 100 µM
DMS 273 small cell lung
  TGI: > 100 µM
XF 498 CNS
  TGI: > 100 µM
DLD-1 colon
  TGI: > 100 µM

## C=C(C)C1CC2C(C)=C(OC(C)=O)C1n1c(=O)c3cc4ccccc4cc3c(=O)n12 (configuration not stated)
LXFL 529 NSCLC
  TGI: > 100 µM
M19-MEL melanoma
  TGI: > 100 µM
SNB-78 CNS
  TGI: > 100 µM
DMS 273 small cell lung
  TGI: > 100 µM
DLD-1 colon
  TGI: > 100 µM
HOP-18 NSCLC
  TGI: > 100 µM
KM20L2 colon
  TGI: > 100 µM

## CC[O-].CC[O-].O=C1C(=C([O-])c2ccccc2)C(=O)c2ccccc21.O=C1C(=C([O-])c2ccccc2)C(=O)c2ccccc21.[Ti+4]
SNB-78 CNS
  GI50: > 100 µM
  TGI: > 100 µM
DMS 273 small cell lung
  GI50: 54.8 µM
  TGI: > 100 µM
DLD-1 colon
  GI50: 93.2 µM
  TGI: > 100 µM
HOP-18 NSCLC
  GI50: > 100 µM
  TGI: > 100 µM
KM20L2 colon
  GI50: > 100 µM
  TGI: > 100 µM

## O=[N+]([O-])c1ccc(N=Nc2c(O)[nH]c3ccc([N+](=O)[O-])cc23)cc1
LXFL 529 NSCLC
  TGI: 26.4 µM
M19-MEL melanoma
  TGI: 36.9 µM
DMS 273 small cell lung
  TGI: 33.6 µM
XF 498 CNS
  TGI: 32.3 µM
DLD-1 colon
  TGI: > 100 µM
KM20L2 colon
  TGI: 63.7 µM

## O=C(CC(C(=O)c1cccs1)c1ccc2c(c1)OCO2)c1ccc(Br)cc1 (configuration not stated)
MDA-N
  TGI: > 100 µM

## CC1(C)O[C@H]2OC3CCC(=O)CC3(O)[C@H]2O1 (some centres not stated)
MDA-N
  TGI: > 100 µM
M19-MEL melanoma
  TGI: > 100 µM
SNB-78 CNS
  TGI: > 100 µM
XF 498 CNS
  TGI: 97.2 µM
DLD-1 colon
  TGI: > 100 µM

## CC(C)c1ccc2nc3ccc(C(=O)NCCN(C)C)cn3c(=O)c2c1
MDA-N
  TGI: 31.8 µM

## Cc1cc(C)c2c(c1)CN1CN2Cc2cc(C)cc(C)c21
LXFL 529 NSCLC
  TGI: > 100 µM
M19-MEL melanoma
  TGI: 53.4 µM
SNB-78 CNS
  TGI: 40.2 µM
DMS 273 small cell lung
  TGI: 37.2 µM
XF 498 CNS
  TGI: 33.4 µM
DLD-1 colon
  TGI: 58.3 µM
HOP-18 NSCLC
  TGI: 80.3 µM

## Cc1cc(Cl)ccc1NC(=O)C(=O)Cc1nc2ccc(C(=O)c3ccccc3)cc2[nH]c1=O
LXFL 529 NSCLC
  TGI: > 100 µM
M19-MEL melanoma
  TGI: > 100 µM
DMS 273 small cell lung
  TGI: > 100 µM
XF 498 CNS
  TGI: > 100 µM
DLD-1 colon
  TGI: > 100 µM
HOP-18 NSCLC
  TGI: > 100 µM
KM20L2 colon
  TGI: > 100 µM

## COC(=O)C1=CCON(c2ccccc2)C1c1ccccc1 (configuration not stated)
LXFL 529 NSCLC
  TGI: > 100 µM
M19-MEL melanoma
  TGI: > 100 µM
DMS 273 small cell lung
  TGI: > 100 µM
XF 498 CNS
  TGI: > 100 µM
DLD-1 colon
  TGI: > 100 µM
HOP-18 NSCLC
  TGI: > 100 µM
KM20L2 colon
  TGI: > 100 µM

## CON(C)C(=O)C(C)NC(=O)OCc1ccccc1 (configuration not stated)
MDA-N
  TGI: > 100 µM

## COc1ccc(C2SC(N)=Nc3c2c(C)nn3C(=O)c2ccc(Cl)cc2)cc1OC (configuration not stated)
MDA-N
  TGI: > 10 µM

## O=c1oc2ccccc2c(O)c1C=NC(=S)c1ccncc1
MDA-N
  TGI: > 100 µM

## C/C(=N/N(C=O)C[n+]1ccccc1)C(CN(CC(C)C)CC(C)C)C(=O)Nc1ccc(C)cc1C (configuration not stated)
DLD-1 colon
  TGI: > 100 µM
KM20L2 colon
  TGI: > 100 µM
